According to patent publication US20200345745A1 (University of Leicester, priority 2017, published 2020):
Where two headings read alike, the source gives them in different places.

Tests used:
KMO = conditions: literature value; read-out: IC50 (KMO inhibition); cited from earlier work
[1] = target: recombinant P. fluorescens kynurenine 3-monooxygenase (PfKMO) (Pseudomonas fluorescens, UniProt Q84HF5, C252S/C461S); assay: biochemical
Protocol: Protein was expressed by growing transformed cells in auto induction LB medium (Fermentas) containing 100 μg/mL for 24 hours at 22° C. […] The cell lysate was centrifuged at 180,000 g for 1 hour at 4° C. to remove cell debris. The soluble cell lysate was loaded onto Q-sepharose column equilibrated with anion exchange buffer (20 mM HEPES pH 7.5, 1 mM DTT with 10 mM NaCl) and bound protein was eluted with a gradient (5 column volumes) of increasing NaCl concentration from 50 to 100 mM in anion exchange buffer. Fractions containing KMO were pooled and precipitated in 50% saturated ammonium sulphate by adding precipitation buffer (20 mM HEPES pH 7.5, 3 M ammonium sulphate, 1 mM DTT). The precipitated protein was pelleted by centrifugation at 12,000 g for 20 min, resuspended in a small volume of size exclusion buffer (20 mM HEPES pH 7.0, 150 mM sodium acetate, 1 mM DTT) and passed down a Superdex 75 column. Pure PfKMO was pooled and stored at −80° C.
(§1) KMO activity was measured in the presence of a range of compound concentrations by monitoring the consumption of NADPH at 340 nm upon addition of enzyme via a Cary 50 UV-Vis spectrophotometer (Agilent Technologies). All measurements were performed in triplicate. The IC50 values for each compound were obtained by plotting the percentage inhibition versus the inhibitor concentration and fitting to the Morrison equation using Origin 9.0 software (OriginLab, Northampton, Mass.).

[2] = target: T1, recombinant Homo Sapiens kynurenine 3-monooxygenase (HsKMO) (Homo sapiens, UniProt O15229); assay: Inhibition of recombinant Homo sapiens KMO (NADPH consumption at 340 nm); assay type: biochemical; conditions: 0.5 μM HsKMO, L-Kyn 250 μM, NADPH 200 μM, pH 8.0, triplicate
T1 construct: The gene encoding full-length human KMO was synthesized; glutathione S-transferase (GST; vector pAcGHLT-A); made in house; host or cells: Hi5 insect cells (baculovirus)
Protocol: The gene encoding full-length human KMO was synthesized (GeneScript) and codon optimized for overexpression in […]. The gene was subcloned into the baculovirus transfer vector pAcGHLT-A-glutathione S-transferase as a Ndel-EcoRI fragment and transfected into Hi5 cells along with linearized baculovirus using the following sense and antisense primers: […]
Cultured cells were lysed in 20 mM potassium phosphate buffer, pH 7.5, 10% glycerol, 0.5% n-dodecyl β-D-maltoside (DDM), 150 mM NaCl, 7 mM 2-mercaptoethanol and 50 μM FAD supplemented with protease inhibitors (Sigma-Aldrich). Soluble lysate was incubated with 3 ml pre-equilibrated glutathione uniflow resin (Clontech). […] Fractions (0.5 ml) were eluted with buffer C (buffer B+33 mM glutathione) and fractions containing KMO pooled, concentrated and loaded onto a Superdex 200 (10/30) size-exclusion chromatography column. Pure KMO was pooled and stored at −80° C.
as §1

recombinant P. fluorescens kynurenine 3-monooxygenase (PfKMO), sequence (Q84HF5 whole entry C252S/C461S): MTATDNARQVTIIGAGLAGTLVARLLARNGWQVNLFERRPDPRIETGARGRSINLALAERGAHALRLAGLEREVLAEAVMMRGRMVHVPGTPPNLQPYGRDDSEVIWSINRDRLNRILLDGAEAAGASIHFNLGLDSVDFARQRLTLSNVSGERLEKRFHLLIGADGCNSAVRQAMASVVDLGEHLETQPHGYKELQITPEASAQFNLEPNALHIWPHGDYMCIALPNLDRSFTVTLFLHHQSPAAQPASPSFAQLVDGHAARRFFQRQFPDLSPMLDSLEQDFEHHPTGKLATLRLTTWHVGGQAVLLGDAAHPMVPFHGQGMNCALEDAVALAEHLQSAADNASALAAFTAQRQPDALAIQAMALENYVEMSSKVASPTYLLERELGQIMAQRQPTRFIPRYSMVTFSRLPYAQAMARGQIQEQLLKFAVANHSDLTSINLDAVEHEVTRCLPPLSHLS
T1 sequence (O15229 whole entry): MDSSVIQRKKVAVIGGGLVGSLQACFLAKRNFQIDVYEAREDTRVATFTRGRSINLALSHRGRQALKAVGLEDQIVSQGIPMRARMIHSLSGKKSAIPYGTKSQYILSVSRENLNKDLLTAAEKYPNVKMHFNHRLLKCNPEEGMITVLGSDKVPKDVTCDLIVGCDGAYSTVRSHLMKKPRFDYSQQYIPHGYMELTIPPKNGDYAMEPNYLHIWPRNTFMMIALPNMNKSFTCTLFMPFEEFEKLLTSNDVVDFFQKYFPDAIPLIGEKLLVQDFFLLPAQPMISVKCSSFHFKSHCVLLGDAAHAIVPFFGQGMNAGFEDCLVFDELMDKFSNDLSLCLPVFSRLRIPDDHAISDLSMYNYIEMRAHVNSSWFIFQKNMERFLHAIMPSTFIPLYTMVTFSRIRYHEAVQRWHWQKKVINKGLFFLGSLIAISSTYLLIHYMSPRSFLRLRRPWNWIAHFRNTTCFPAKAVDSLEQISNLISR

SMILES	IC50 (KMO) [µM]	IC50 [1] [µM]	IC50 [2] [µM]	IC50 ([1]; read-out: IC50 for PfKMO inhibition, 0.1 μM PfKMO, L-Kyn 250 μM, NADPH 200 μM, pH 7.5, triplicate) [µM]
COC(=O)CN1C(=O)COc2cc(C)c(Cl)c(C)c21 [Example 1, methyl 2-(6-chloro-5,7-dimethyl-3-oxo-1,4-benzoxazin-4-yl)acetate]		> 100	> 100	
Cc1cc2c(c(C)c1Cl)N(CC(N)=O)C(=O)CO2 [Example 8, 2-(6-chloro-5,7-dimethyl-3-oxo-1,4-benzoxazin-4-yl)acetamide]		> 100	> 100	
O=C(O)[C@H]1C[C@@H]1C(=O)c1ccc(Cl)c(Cl)c1 [UPF-648]	0.02			
CCOC(=O)CN1C(=O)COc2cc(C)c(Cl)c(C)c21 [Example 2, ethyl 2-(6-chloro-5,7-dimethyl-3-oxo-1,4-benzoxazin-4-yl)acetate]		> 100	> 100	
Cc1cc2c(c(C)c1Cl)N(CC(=O)OC(C)C)C(=O)CO2 [Example 3, isopropyl 2-(6-chloro-5,7-dimethyl-3-oxo-1,4-benzoxazin-4-yl)acetate]		> 100	> 100	
Cc1cc2c(c(C)c1Cl)N(CC(=O)OC(C)(C)C)C(=O)CO2 [Example 4, tert-butyl 2-(6-chloro-5,7-dimethyl-3-oxo-1,4-benzoxazin-4-yl)acetate]		> 100	> 100	
NC(CC(=O)c1ccc(Cl)c(Cl)c1)C(=O)O (racemic) [(R,S)-3,4-dichlorobenzoylalanine]	0.9			
CNC(=O)CN1C(=O)COc2cc(C)c(Cl)c(C)c21 [Example 7]		> 100	> 100	
Cc1cc2c(c(C)c1Cl)N(CC(=O)N(C)C)C(=O)CO2 [Example 6, 2-(6-chloro-5,7-dimethyl-3-oxo-1,4-benzoxazin-4-yl)-N,N-dimethyl-acetamide]		> 100	> 100	
Cc1cc2c(c(C)c1Cl)N(Cc1nn[nH]n1)C(=O)CO2 [Example 9, 6-chloro-5,7-dimethyl-4-(2H-tetrazol-5-ylmethyl)-1,4-benzoxazin-3-one]			1.28	17
